# Patent publication US9062015B2, “Inhibitors of sphingosine kinase” (Merck Patent GmbH, priority 2009, dated 2015)
# Target: SphK1 (Homo sapiens, UniProt Q9NYA1)
# Assay: SphK1 kinase assay, 384-well flashplate (biochemical assay)
# Settings: IC50 ranges; 5 nM modified SphK1, 800 nM omega-biotinyl-D-erythro-sphingosine, 1 μM ATP, 30° C., 120 min; read-out: SphK1 Inhibition IC50
# Experimental: Tests for the Inhibition of the SphK1 Activity
# The kinase assay is carried out as a 384-well flashplate assay.
# 5 nM modified SphK1, 800 nM omega-biotinyl-D-erythro-sphingosine and 1 μM ATP (with 0.3 μCi of ^33P-ATP/well) are incubated in a total volume of 50 μl (25 mM HEPES, 5 mM MgCl2, 1 mM dithiothreitol, 0.01% of Brij35, 0.1% of BSA (fatty acid-free), pH 7.4) without or with test substance (5-10 concentrations) at 30° C. for 120 min. The reaction is terminated using 25 μl of 200 mM EDTA solution, filtered off with suction at room temperature after 30 min, and the cavities are washed 3 times with 100 μl of 0.9% NaCl solution. The non-specific proportion of the kinase reaction (blank) is determined using 0.5 mM NaCl. Radioactivity is measured in topcount. IC50 values are calculated using RS1.
# Sequence of SphK1 (Q9NYA1 9-364 limits assumed): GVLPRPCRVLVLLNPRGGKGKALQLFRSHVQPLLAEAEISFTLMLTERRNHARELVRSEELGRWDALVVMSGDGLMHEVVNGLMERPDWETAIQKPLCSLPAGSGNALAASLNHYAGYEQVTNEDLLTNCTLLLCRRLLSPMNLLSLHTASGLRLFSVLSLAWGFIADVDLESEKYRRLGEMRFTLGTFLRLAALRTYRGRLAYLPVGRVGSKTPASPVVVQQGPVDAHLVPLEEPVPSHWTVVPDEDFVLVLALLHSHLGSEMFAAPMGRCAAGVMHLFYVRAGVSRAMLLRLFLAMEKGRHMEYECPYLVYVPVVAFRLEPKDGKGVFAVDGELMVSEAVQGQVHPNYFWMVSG
row,IC50,SMILES
1,> 1 µM,Cc1ccc(-c2ccc3c(c2)C(C)(C)CCC3(C)C)cc1N1CCNCC1
2,0.1 to 1 µM,CC1(C)CCC(C)(C)c2cc(-c3cc(N4CCNCC4)ccn3)ccc21
3,> 1 µM,COCCOc1ccc(-c2ccc3c(c2)C(C)(C)CCC3(C)C)nc1N1CCNCC1
4,< 0.1 µM,CC1(C)CCC(C)(C)c2cc(-c3ncnc(N4CCC(N)CC4)n3)ccc21
5,0.1 to 1 µM,CC1(C)CCC(C)(C)c2cc(-c3ccnc(N4CCNCC4)c3)ccc21
6,0.1 to 1 µM,CC1(C)CCC(C)(C)c2cc(-c3nccc(N4CCN(CCCO)CC4)n3)ccc21
7,0.1 to 1 µM,CC1(C)CCC(C)(C)c2cc(-c3cc(N4CCN(CCCCO)CC4)ccn3)ccc21
8,0.1 to 1 µM,CC1(C)CCC(C)(C)c2cc(-c3cccc(N4CCN(CCCCO)CC4)c3)ccc21
9,0.1 to 1 µM,CC1(C)CCC(C)(C)c2cc(-c3ccnc(N4CCN(CCCCO)CC4)c3)ccc21
10,< 0.1 µM,CC1(C)CCC(C)(C)c2cc(-c3cccc(N4CCN(CCCCO)CC4)n3)ccc21
11,> 1 µM,COCCOc1ccc(-c2ccc3c(c2)C(C)(C)CCC3(C)C)nc1N1CCN(CCCCCO)CC1
12,< 0.1 µM,CC1(C)CCC(C)(C)c2cc(-c3cccc(N4CCN(CCCCCO)CC4)c3)ccc21
13,< 0.1 µM,CC1(C)CCC(C)(C)c2cc(-c3ncnc(N4CCN(CCCCCO)CC4)n3)ccc21
14,< 0.1 µM,CC1(C)CCC(C)(C)c2cc(-c3cccc(N4CCN(CCCCCO)CC4)n3)ccc21
15,0.1 to 1 µM,CC1(C)CCC(C)(C)c2cc(-c3cccc(N4CCN(CCCCCOC(=O)CN)CC4)c3)ccc21
16,> 1 µM,CC1(C)CCC(C)(C)c2cc(-c3cccc(N4CCN(C[C@@H](N)CO)CC4)n3)ccc21
17,0.1 to 1 µM,C[C@H]1CN(c2cccc(-c3ccc4c(c3)C(C)(C)CCC4(C)C)c2)CCN1
18,0.1 to 1 µM,"CC1(C)CCC(C)(C)c2cc(-c3cccc(N4CCNCC4)c3)ccc21 [1-[3-(5,5,8,8-Tetramethyl-5,6,7,8-tetrahydronaphthalen-2-yl)phenyl]-piperazine]"
19,0.1 to 1 µM,"CC1(C)CC(C)(C)c2cc(-c3cccc(N4CCNCC4)n3)ccc21 [1-[6-(1,1,3,3-Tetramethylindan-5-yl)pyridin-2-yl]piperazine]"
20,> 1 µM,"CC1(C)CCc2cc(-c3cccc(N4CCNCC4)n3)ccc21 [1-[6-(1,1-Dimethylindan-5-yl)pyridin-2-yl]piperazine]"
21,0.1 to 1 µM,"CC1(C)CCC(C)(C)c2cc(-c3cccc(N4CCNCC4)n3)ccc21 [1-[6-(5,5,8,8-Tetramethyl-5,6,7,8-tetrahydronaphthalen-2-yl)pyridin-2-yl]piperazine]"
22,> 1 µM,"CC1(C)CCCc2cc(-c3cccc(N4CCNCC4)n3)ccc21 [1-[6-(5,5-Dimethyl-5,6,7,8-tetrahydronaphthalen-2-yl)pyridin-2-yl]-piperazine]"
23,> 1 µM,"CC1(C)CCCc2ccc(-c3cccc(N4CCNCC4)n3)cc21 [1-[6-(8,8-Dimethyl-5,6,7,8-tetrahydronaphthalen-2-yl)pyridin-2-yl]-piperazine]"
24,< 0.1 µM,"CC1(C)CCC(C)(C)c2cc(-c3cccc(N4CCC(N5CCC(N)C5)CC4)n3)ccc21 (stereo not shown) [1-[6′-(5,5,8,8-Tetramethyl-5,6,7,8-tetrahydronaphthalen-2-yl)-3,4,5,6-tetrahydro-2H-1,2′-bipyridinyl-4-yl]pyrrolidin-3-ylamine]"
25,0.1 to 1 µM,"CC1(C)CCC(C)(C)c2cc(-c3ncnc(N4CCC(N5CCC(N)C5)CC4)n3)ccc21 (stereo not shown) [1-{1-[4-(5,5,8,8-Tetramethyl-5,6,7,8-tetrahydronaphthalen-2-yl)-1,3,5-triazin-2-yl]piperidin-4-yl}pyrrolidin-3-ylamine]"

row,IC50,SMILES
1,0.1 to 1 µM,"CC1(C)CCC(C)(C)c2cc(-c3ncnc(N4CCC(N5CCCC(O)C5)CC4)n3)ccc21 (stereo not shown) [1′-[4-(5,5,8,8-Tetramethyl-5,6,7,8-tetrahydronaphthalen-2-yl)-1,3,5-triazin-2-yl]-1,4′-bipiperidinyl-3-ol]"
2,> 1 µM,"CC1(C)CCCc2cc(-c3ncnc(N4CCNCC4)n3)ccc21 [2-(5,5-Dimethyl-5,6,7,8-tetrahydronaphthalen-2-yl)-4-piperazin-1-yl-1,3,5-triazine]"
3,> 1 µM,"CC1(C)CCCc2ccc(-c3ncnc(N4CCNCC4)n3)cc21 [2-(8,8-Dimethyl-5,6,7,8-tetrahydronaphthalen-2-yl)-4-piperazin-1-yl-1,3,5-triazine]"
4,< 0.1 µM,"CC1(C)CCC(C)(C)c2cc(-c3ncnc(N4CCNCC4)n3)ccc21 [2-Piperazin-1-yl-4-(5,5,8,8-tetramethyl-5,6,7,8-tetrahydronaphthalen-2-yl)-1,3,5-triazine]"
5,0.1 to 1 µM,"CC1(C)CCC(C)(C)c2cc(-c3ccnc(N4CCNCC4)n3)ccc21 [2-Piperazin-1-yl-4-(5,5,8,8-tetramethyl-5,6,7,8-tetrahydronaphthalen-2-yl)pyrimidine]"
6,0.1 to 1 µM,"CC1(C)CCC(C)(C)c2cc(-c3cccc(N4CCN(CCCO)CC4)n3)ccc21 [3-{4-[6-(5,5,8,8-Tetramethyl-5,6,7,8-tetrahydronaphthalen-2-yl)-pyridin-2-yl]piperazin-1-yl}propan-1-ol]"
7,> 1 µM,"CC1(C)CCCc2cc(-c3cccc(N4CCN(CCCO)CC4)n3)ccc21 [3-{4-[6-(5,5-Dimethyl-5,6,7,8-tetrahydronaphthalen-2-yl)pyridin-2-yl]-piperazin-1-yl}propan-1-ol]"
8,0.1 to 1 µM,"CC1(C)CCC(C)(C)c2cc(-c3nccc(N4CCNCC4)n3)ccc21 [4-Piperazin-1-yl-2-(5,5,8,8-tetramethyl-5,6,7,8-tetrahydronaphthalen-2-yl)pyrimidine]"
9,< 0.1 µM,"CC1(C)CCC(C)(C)c2cc(-c3cccc(N4CCC(NCCCCO)CC4)n3)ccc21 [4-[6′-(5,5,8,8-Tetramethyl-5,6,7,8-tetrahydronaphthalen-2-yl)-3,4,5,6-tetrahydro-2H-1,2′-bipyridinyl-4-ylamino]butan-1-ol]"
10,< 0.1 µM,"CC1(C)CCC(C)(C)c2cc(-c3ncnc(N4CCC(NCCCCO)CC4)n3)ccc21 [4-{1-[4-(5,5,8,8-Tetramethyl-5,6,7,8-tetrahydronaphthalen-2-yl)-1,3,5-triazin-2-yl]piperidin-4-ylamino}butan-1-ol]"
11,< 0.1 µM,"CC1(C)CCC(C)(C)c2cc(-c3ncnc(N4CCN(CCCCO)CC4)n3)ccc21 [4-{4-[4-(5,5,8,8-Tetramethyl-5,6,7,8-tetrahydronaphthalen-2-yl)-1,3,5-triazin-2-yl]piperazin-1-yl}butan-1-ol]"
12,0.1 to 1 µM,"CC1(C)CC(C)(C)c2cc(-c3cccc(N4CCN(CCCCO)CC4)n3)ccc21 [4-{4-[6-(1,1,3,3-Tetramethylindan-5-yl)pyridin-2-yl]piperazin-1-yl}-butan-1-ol]"
13,> 1 µM,"CC1(C)CCc2cc(-c3cccc(N4CCN(CCCCO)CC4)n3)ccc21 [4-{4-[6-(1,1-Dimethylindan-5-yl)pyridin-2-yl]piperazin-1-yl}butan-1-ol]"
14,> 1 µM,"CC1(C)CCCc2cc(-c3cccc(N4CCN(CCCCO)CC4)n3)ccc21 [4-{4-[6-(5,5-Dimethyl-5,6,7,8-tetrahydronaphthalen-2-yl)pyridin-2-yl]-piperazin-1-yl}butan-1-ol]"
15,> 1 µM,"CC1(C)CCCc2ccc(-c3cccc(N4CCN(CCCCO)CC4)n3)cc21 [4-{4-[6-(8,8-Dimethyl-5,6,7,8-tetrahydronaphthalen-2-yl)pyridin-2-yl]-piperazin-1-yl}butan-1-ol]"
16,0.1 to 1 µM,"CC1(C)CCC(C)(C)c2cc(-c3cccc(N4CCC(NCCCCCO)CC4)n3)ccc21 [5-[6′-(5,5,8,8-Tetramethyl-5,6,7,8-tetrahydronaphthalen-2-yl)-3,4,5,6-tetrahydro-2H-1,2′-bipyridinyl-4-ylamino]pentan-1-ol]"
17,0.1 to 1 µM,"CC1(C)CC(C)(C)c2cc(-c3cccc(N4CCN(CCCCCO)CC4)n3)ccc21 [5-{4-[6-(1,1,3,3-Tetramethylindan-5-yl)pyridin-2-yl]piperazin-1-yl}-pentan-1-ol]"
18,> 1 µM,"CC1(C)CCc2cc(-c3cccc(N4CCN(CCCCCO)CC4)n3)ccc21 [5-{4-[6-(1,1-Dimethylindan-5-yl)pyridin-2-yl]piperazin-1-yl}pentan-1-ol]"
19,0.1 to 1 µM,"CC1(C)CCCc2cc(-c3cccc(N4CCN(CCCCCO)CC4)n3)ccc21 [5-{4-[6-(5,5-Dimethyl-5,6,7,8-tetrahydronaphthalen-2-yl)pyridin-2-yl]-piperazin-1-yl}pentan-1-ol]"
20,> 1 µM,"CC1(C)CCCc2ccc(-c3cccc(N4CCN(CCCCCO)CC4)n3)cc21 [5-{4-[6-(8,8-Dimethyl-5,6,7,8-tetrahydronaphthalen-2-yl)pyridin-2-yl]-piperazin-1-yl}pentan-1-ol]"
21,0.1 to 1 µM,"CC1(C)CCC(C)(C)c2cc(-c3cccc(C4CCNCC4)n3)ccc21 [6-(5,5,8,8-Tetramethyl-5,6,7,8-tetrahydronaphthalen-2-yl)-1′,2′,3′,4′,5′,6′-hexahydro-2,4′-bipyridinyl]"
22,> 1 µM,"CC1(C)CCC(C)(C)c2cc(-c3cncc(N4CCNCC4)n3)ccc21 [6′-(5,5,8,8-Tetramethyl-5,6,7,8-tetrahydronaphthalen-2-yl)-3,4,5,6-tetrahydro-2H-1,2′-bipyrazinyl]"
23,0.1 to 1 µM,"CC1(C)CCC(C)(C)c2cc(-c3cccc(N4CCC(N)CC4)n3)ccc21 [6′-(5,5,8,8-Tetramethyl-5,6,7,8-tetrahydronaphthalen-2-yl)-3,4,5,6-tetrahydro-2H-1,2′-bipyridinyl-4-ylamine]"
24,0.1 to 1 µM,"CC1(C)CCC(C)(C)c2cc(-c3cccc(N4CCC(N5CCCC(O)C5)CC4)n3)ccc21 (stereo not shown) [6″-(5,5,8,8-Tetramethyl-5,6,7,8-tetrahydronaphthalen-2-yl)-3,4,5,6,3′,4′,5′,6′-octahydro-2H,2′H-[1,4′;1′,2″]terpyridin-3-ol]"
